Read-outs that look alike come from different tables or passages of the source.
Legend:
[1] = background statement; cited from earlier work
H^+ /K^+ ATPase = target: T1, H^+ /K^+ ATPase (Sus scrofa, UniProt P19156); assay: H^+ /K^+ ATPase Inhibitory Activity Assay; type: biochemical, pig; settings: for inhibition at 20 µg/mL: 20 μg/ml; for inhibition at 10 µg/mL / inhibition at 5 µg/mL: read-out: H^+ /K^+ ATPase % Inhibition
T1 construct: prepared from the stomach of pig; from tissue; host or cells: stomach of pig
Procedure: The inhibitory activity was determined in the following manner using H^+ /K^+ ATPase prepared from the stomach of pig.
H^+ /K^+ ATPase dilute solution (100 μl, 50 μg as protein) was added to PIPES-tris (pH 6.2) buffer solution (440 μl) containing 4 mM magnesium chloride and 20 mM potassium chloride. Further, 0.1% ethanol solution of nigericin (5 μl) was added. To the solution was added dimethyl sulfoxide (5 μl) and the mixture was incubated at 37° C. for 30 minutes. Then 10 mM PIPES-tris buffer solution (450 μl) containing 4 mM ATP disodium was added to initiate the reaction. 30 minutes later, 50% trichloroacetic acid (1 ml) was added to cease the reaction. […] On the other hand, a similar determination was carried out in the absence of potassium chloride, at which the reading of the absorbance is taken as C2. […] In that case, the readings of the absorbance in the presence and absence of potassium chloride are taken as T1 and T2, respectively.
% Inhibition (I) of the inhibiting substance (test compound) is calculated by the following equation.

T1 sequence (P19156 2-1034 limits assumed): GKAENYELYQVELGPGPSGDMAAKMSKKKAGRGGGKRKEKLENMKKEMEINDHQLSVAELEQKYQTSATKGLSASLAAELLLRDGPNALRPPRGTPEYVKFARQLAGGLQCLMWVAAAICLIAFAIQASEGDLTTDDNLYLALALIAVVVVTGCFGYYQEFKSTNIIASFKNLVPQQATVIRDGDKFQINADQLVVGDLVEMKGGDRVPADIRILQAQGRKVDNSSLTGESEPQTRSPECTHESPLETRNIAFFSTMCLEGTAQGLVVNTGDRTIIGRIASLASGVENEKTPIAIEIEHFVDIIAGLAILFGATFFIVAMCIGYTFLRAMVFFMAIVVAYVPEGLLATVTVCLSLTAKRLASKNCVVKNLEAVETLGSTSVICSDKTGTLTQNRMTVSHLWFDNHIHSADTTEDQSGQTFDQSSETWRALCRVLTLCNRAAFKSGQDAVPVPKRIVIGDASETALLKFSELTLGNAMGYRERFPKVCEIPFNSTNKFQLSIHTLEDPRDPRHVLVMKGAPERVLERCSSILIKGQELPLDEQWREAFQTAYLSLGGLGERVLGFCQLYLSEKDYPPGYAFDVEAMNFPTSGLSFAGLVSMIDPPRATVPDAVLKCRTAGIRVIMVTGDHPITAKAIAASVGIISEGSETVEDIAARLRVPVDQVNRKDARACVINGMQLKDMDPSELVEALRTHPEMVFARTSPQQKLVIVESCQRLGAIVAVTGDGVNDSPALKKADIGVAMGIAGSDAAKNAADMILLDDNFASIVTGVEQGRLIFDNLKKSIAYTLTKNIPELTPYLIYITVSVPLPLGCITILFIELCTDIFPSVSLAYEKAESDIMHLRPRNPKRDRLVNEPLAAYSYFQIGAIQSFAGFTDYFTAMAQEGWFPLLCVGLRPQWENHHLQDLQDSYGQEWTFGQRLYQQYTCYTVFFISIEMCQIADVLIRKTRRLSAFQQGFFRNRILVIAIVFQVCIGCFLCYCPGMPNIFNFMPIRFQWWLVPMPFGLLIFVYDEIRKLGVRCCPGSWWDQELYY
T1 sequence (P18434 whole entry partner): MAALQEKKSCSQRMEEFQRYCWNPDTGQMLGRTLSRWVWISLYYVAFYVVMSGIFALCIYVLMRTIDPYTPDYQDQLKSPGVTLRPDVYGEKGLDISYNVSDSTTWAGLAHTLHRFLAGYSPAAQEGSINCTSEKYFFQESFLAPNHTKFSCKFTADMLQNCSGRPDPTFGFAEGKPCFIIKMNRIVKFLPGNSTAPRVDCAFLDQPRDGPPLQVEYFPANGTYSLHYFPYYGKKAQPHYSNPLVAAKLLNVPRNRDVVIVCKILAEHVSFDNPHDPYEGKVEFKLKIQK

SMILES	inhibition at 20 µg/mL (H^+ /K^+ ATPase) [%]	inhibition at 10 µg/mL (H^+ /K^+ ATPase; 10 μg/ml) [%]	also measured
COc1ccc2[nH]c([S+]([O-])Cc3ncc(C)c(OC)c3C)nc2c1 (stereo not shown) [Omeprazole, omeprazole]	–	–	occurrence of side effect (omeprazole) [1]: occurrence of carcinoid
c1ccc2c(CCN3CCCCC3)c(CCCCCCc3[nH]c4ccccc4c3CCN3CCCCC3)[nH]c2c1 [Example 1, 3,3'-Di(2-piperidinoethyl)-2,2'-hexamethylenediindole]	5	–	–
c1ccc(CNCCc2c(CCCCc3[nH]c4ccccc4c3CCNCc3ccccc3)[nH]c3ccccc23)cc1 [Example 7, 3,3'-Di(2-benzylaminoethyl)-2,2'-tetramethylenediindole]	76	–	–
c1ccc2[nH]c(CCCCCCCCc3[nH]c4ccccc4c3CCN3CCCCC3)cc2c1 [Example 4, 3-(2-Piperidinoethyl)-2,2'-octamethylenediindole]	–	91	–
c1ccc(CNCCc2c(CCCCc3cc4ccccc4[nH]3)[nH]c3ccccc23)cc1 [Example 8, 3-(2-Benzylaminoethyl)-2,2'-tetramethylenediindole]	100	–	–
CN(CCc1c(CCCCc2[nH]c3ccccc3c2CCN(C)Cc2ccccc2)[nH]c2ccccc12)Cc1ccccc1 [Example 17, 3,3'-Di(2-(N-methylbenzylamino)ethyl)-2,2'-tetramethylenediindole]	–	–	inhibition at 5 µg/mL (H^+ /K^+ ATPase): 38%
c1ccc2[nH]c(CCCCCCc3[nH]c4ccccc4c3CCN3CCCCC3)cc2c1 [Example 2, 3-(2-Piperidinoethyl)-2,2'-hexamethylenediindole]	–	84	–
c1ccc(CCNCCc2c(CCCCc3cc4ccccc4[nH]3)[nH]c3ccccc23)cc1 [Example 3, 3-(2-Phenethylaminoethyl)-2,2'-tetramethylenediindole]	–	97	–
c1ccc2[nH]c(CCCCc3[nH]c4ccccc4c3CCN3CCOCC3)cc2c1 [Example 5, 3-(2-Morpholinoethyl)-2,2'-tetramethylenediindole]	68	–	–
c1ccc2[nH]c(CCCCc3[nH]c4ccccc4c3CCNCCc3c[nH]c4ccccc34)cc2c1 [Example 16, 3-(2-(2-(3-Indolyl)ethylamino)ethyl)-2,2'-tetramethylenediindole]	–	–	inhibition at 5 µg/mL (H^+ /K^+ ATPase; 5 μg/ml): 71%
CN(CCc1c(CCCCc2cc3ccccc3[nH]2)[nH]c2ccccc12)Cc1ccccc1 [Example 18, 3-(2-(N-Methylbenzylamino)ethyl)-2,2'-tetramethylenediindole]	–	–	inhibition at 10 µg/mL (H^+ /K^+ ATPase): 100%
c1ccc(CCNCCc2c(CCCCc3[nH]c4ccccc4c3CCNCCc3ccccc3)[nH]c3ccccc23)cc1 [Example 13, 3,3'-Di(2-phenethylaminoethyl)-2,2'-tetramethylenediindole]	–	–	inhibition at 5 µg/mL (H^+ /K^+ ATPase; 5 μg/ml): 74%
c1ccc(CCCNCCc2c(CCCCc3[nH]c4ccccc4c3CCNCCCc3ccccc3)[nH]c3ccccc23)cc1 [Example 19, 3,3'-Di(2-(3-phenylpropylamino)ethyl)-2,2'-tetramethylenediindole]	–	98	–
